Measured values published in PubChem BioAssay (NCI).
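96-well plates; 48 h exposure; 5 concentrations. Endpoints by linear interpolation between flanking doses. Not reached: highest tested concentration assigned. GI50 is the concentration that inhibits growth by half. At the TGI there is no net growth.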

Assays:
Assay in all cases: growth of human tumour cells (NCI), 48 h
HCT-116 colon = tested on: HCT-116 colon
IGROV1 ovarian = tested on: IGROV1 ovarian
K-562 leukemia = tested on: K-562 leukemia
LOX IMVI melanoma = tested on: LOX IMVI melanoma
NCI-H226 lung = tested on: NCI-H226 lung
OVCAR-8 ovarian = tested on: OVCAR-8 ovarian
SF-295 CNS = tested on: SF-295 CNS
SK-MEL-28 melanoma = tested on: SK-MEL-28 melanoma
SR leukemia = tested on: SR leukemia
UACC-62 melanoma = tested on: UACC-62 melanoma

Compound | TGI (HCT-116 colon) [µM] | TGI (IGROV1 ovarian) [µM] | TGI (K-562 leukemia) [µM] | TGI (LOX IMVI melanoma) [µM] | TGI (NCI-H226 lung) [µM] | TGI (OVCAR-8 ovarian) [µM] | TGI (SF-295 CNS) [µM] | TGI (SK-MEL-28 melanoma) [µM] | TGI (SR leukemia) [µM] | TGI (UACC-62 melanoma) [µM] | GI50 (HCT-116 colon) [µM] | GI50 (IGROV1 ovarian) [µM] | GI50 (K-562 leukemia) [µM] | GI50 (LOX IMVI melanoma) [µM] | GI50 (NCI-H226 lung) [µM] | GI50 (OVCAR-8 ovarian) [µM] | GI50 (SF-295 CNS) [µM] | GI50 (SK-MEL-28 melanoma) [µM] | GI50 (SR leukemia) [µM] | GI50 (UACC-62 melanoma) [µM]
NC(CO)C(=O)NCC(=O)O (centres undefined) | > 100 | > 100 | > 100 | > 100 | > 100 | > 100 | > 100 | > 100 | > 100 | > 100 | – | – | – | – | – | – | – | – | – | –
CCOP(=O)(CC(=O)C1=C(O)C(CCCCNC(=O)OC(C)(C)C)N(Cc2ccccc2)C1=O)OCC (centres undefined) | > 100 | > 100 | > 100 | > 100 | > 100 | > 100 | > 100 | > 100 | > 100 | > 100 | – | – | – | – | – | – | – | – | – | –
Oc1c(CNCCNCc2cc(Cl)cc(Cc3ccccc3)c2O)cc(Cl)cc1Cc1ccccc1 | 13.2 | 16.3 | 27.2 | 1.66 | 15.5 | > 100 | 4.1 | 30.7 | > 100 | 10.9 | 0.398 | 0.475 | 0.391 | 0.136 | 0.438 | 0.474 | 0.448 | 0.478 | 0.376 | 0.436
Oc1ccccc1C=Nc1ccccc1N=Cc1ccccc1O.[Cu+2] | 16.9 | 20.1 | > 100 | 13.3 | 16.3 | 8.44 | 19.9 | 23.2 | > 100 | 14.2 | 4.45 | 3.27 | 4.44 | 2.85 | 3.72 | 2.48 | 5.91 | 10.5 | 13.2 | 3.13
COc1cc2c(cc1OC)[C@@H]([C@H](O)c1ccccc1)NCC2 | > 100 | > 100 | > 100 | > 100 | > 100 | > 100 | > 100 | > 100 | > 100 | > 100 | – | – | – | – | – | – | – | – | – | –
N=C(N)SCc1ccc([N+](=O)[O-])cc1[N+](=O)[O-] | 13.6 | 15.3 | 21 | 25 | 62.4 | 75.7 | > 100 | – | 11.4 | 25.3 | 3.53 | 4.33 | 3.42 | 8.66 | 25.3 | 14.3 | 31.3 | – | 3.09 | 11.3
COc1ccc2nccc(/C=C/c3ccnc4ccc(OC)cc34)c2c1 | > 100 | 75.7 | > 59.1 | > 100 | > 100 | > 100 | > 100 | 73.8 | > 53.7 | > 100 | 38.7 | 28.4 | > 43 | 69.3 | > 100 | > 100 | > 64.6 | 24.6 | 21.8 | > 77.4
COc1cc2c(cc1O)C(c1cc(O)c(O)c(OC)c1)C(O)(C(=O)O)C(CO)C2O (centres undefined) | 42.7 | > 100 | > 100 | 33.3 | > 100 | > 100 | > 100 | > 100 | > 100 | > 100 | – | – | – | – | – | – | – | – | – | –
NCCN1C(=O)c2ccccc2C1(O)c1ccc(Cl)cc1 (centres undefined) | 31.7 | 41 | 39 | 32.8 | > 100 | > 100 | 55.3 | 33.2 | 36.6 | 30.7 | – | – | – | – | – | – | – | – | – | –
CC12CCC(O)CC1=CCC1C2CCC2(C)C(c3cccnc3)=CCC12 (centres undefined) | > 100 | > 100 | > 100 | > 100 | > 100 | > 100 | > 100 | > 100 | > 100 | > 100 | > 100 | > 100 | 76.8 | > 100 | > 100 | > 100 | 56 | > 100 | 93.9 | > 100
CC(OC(=O)N(N(CCCl)S(C)(=O)=O)S(C)(=O)=O)c1ccc([N+](=O)[O-])cc1 (centres undefined) | > 100 | > 100 | > 100 | > 100 | 79.3 | > 100 | > 100 | > 100 | > 100 | > 100 | > 66 | > 96.6 | 35.7 | 51.2 | 29.1 | > 100 | 34.5 | > 100 | 26.7 | 29.6
CC(=O)c1ccc2c(c1)N(CCCN(C)C)c1ccccc1S2 | 23.7 | 44 | 83.7 | 25.4 | 55.1 | 37.4 | 25.5 | 32 | 49.5 | 29.1 | 11.3 | 18.8 | 15.9 | 12.4 | 21.3 | 17.7 | 11.9 | 16.2 | 18.7 | 14.9
COc1ccc(Oc2cc(NCCC(F)(F)F)c3ncc(-c4ccc(C(=O)NC5CC5)c(C)c4)n3n2)c(F)c1F | > 54.5 | > 68.3 | > 100 | > 100 | 68.8 | 26.9 | > 65.3 | 59.1 | 64.3 | 85.5 | < 0.01 | 0.484 | 10.2 | 0.125 | 7.34 | 0.0738 | 0.638 | 4.94 | 0.224 | 0.681
Nc1ncnc2nn(C3OC(CO)C(O)C3O)nc12 (centres undefined) | 39.1 | 39.1 | > 100 | 23 | 40.5 | > 100 | > 89.3 | > 100 | 16 | > 100 | – | – | – | – | – | – | – | – | – | –
O=c1cc(O)c2c(O)cc(O)cc2o1 | > 100 | > 100 | > 100 | > 100 | > 100 | > 100 | > 100 | > 100 | > 100 | > 100 | – | – | – | – | – | – | – | – | – | –
Cc1ccc(S(=O)(=O)SCc2ccccc2)cc1 | 26.4 | > 100 | 27.3 | 37.2 | 40.9 | 33.4 | > 89.7 | > 100 | 62.7 | > 67.9 | – | – | – | – | – | – | – | – | – | –
Nc1nc(-c2cc(-c3cccc4ccccc34)nc(N)n2)cc(-c2cccc3ccccc23)n1 | > 100 | > 100 | > 100 | > 100 | > 100 | > 100 | > 100 | > 100 | > 100 | > 100 | – | – | – | – | – | – | – | – | – | –
CNCCCn1c2c(c3ccc(F)cc3c1=O)C(=O)c1cc(OC)cnc1-2 | 0.617 | 4.11 | 1.92 | 0.375 | 0.356 | 1.12 | 0.78 | 3.94 | 1.13 | 2.68 | 0.143 | 0.32 | 0.172 | 0.142 | 0.163 | 0.193 | 0.185 | 1.44 | 0.12 | 0.608
Cn1c2ccccc2c2nnc(NNCc3ccccn3)nc21 | 12.2 | 4.79 | 13.7 | 4.51 | 2.63 | 20.5 | 12.4 | 11.2 | 18.7 | 0.98 | 0.409 | 0.364 | 0.363 | 0.349 | 0.324 | 0.429 | 0.397 | 0.675 | 0.311 | 0.268
CN1C(=O)C(=CN(C)c2ccccc2)C(=O)N(C)C1=O | > 100 | > 100 | > 100 | > 100 | > 100 | > 100 | > 100 | > 100 | > 100 | > 100 | – | – | – | – | – | – | – | – | – | –
COc1ccc2c(c1)CCN1C3=C(CCC3)C(=O)C[C@@H]21 | > 100 | > 100 | > 100 | > 100 | > 100 | > 100 | > 100 | > 100 | > 100 | > 100 | – | – | – | – | – | – | – | – | – | –
C[C@]12CC[C@@H]3c4ccc(O)cc4CC[C@H]3[C@@H]1CC[C@@H]2NS(=O)(=O)c1ccc2ccccc2c1 | 10.6 | 17.2 | > 100 | – | 11.5 | 11.8 | 6.03 | 5.92 | 95 | 3.9 | 2.98 | 4.1 | 3.42 | – | 2.98 | 3.16 | 2.25 | 2.31 | 3.72 | 1.75
CNC(=O)c1cc2c(Oc3ccc(NC(=S)NC(=O)Cc4ccccc4)cc3F)ccnc2cc1OC | > 100 | > 100 | > 100 | > 100 | > 100 | > 100 | > 100 | > 100 | > 100 | > 100 | 59.5 | 5.96 | 0.502 | 4.13 | 5.36 | > 100 | 0.196 | > 100 | 5.78 | 3.43
Cc1cc(NS(=O)(=O)c2ccc(Nc3c4ccccc4nc4c(C(=O)Nc5ccc(S(=O)(=O)N=C(N)N)cc5)ccc(Cl)c34)cc2)no1 | > 100 | – | > 100 | 36.8 | 97.8 | 38.5 | > 100 | > 100 | 61 | 73.5 | – | – | – | – | – | – | – | – | – | –
COC(=O)[C@@H](OC)[C@@H]1Cc2cc3cc(OC4CC(OC5CC(O)C(O)C(C)O5)C(O)C(C)O4)c(C)c(O)c3c(O)c2C(=O)[C@H]1OC1CC(OC2CC(OC3CC(C)(O)C(O)C(C)O3)C(O)C(C)O2)C(O)C(C)O1 (some centres undefined) | > 16.5 | > 16.5 | > 16.5 | > 5.38 | 0.125 | > 16.5 | > 5.45 | 0.106 | > 16.5 | 0.0469 | 0.0246 | 0.0299 | 0.0407 | 0.026 | 0.0384 | 0.0393 | 0.0357 | 0.0312 | 0.0103 | 0.0194
Cn1c(C(C)(C)OC(=O)Oc2ccccc2)cnc1[N+](=O)[O-] | > 100 | > 100 | > 100 | – | > 100 | > 100 | > 100 | > 100 | 51.7 | > 100 | – | – | – | – | – | – | – | – | – | –
COc1ccc(C#CC2=C(c3cc(OC)c(OC)c(OC)c3)C(=O)OC2)cc1 | > 50 | > 50 | > 50 | – | 27.1 | 22.5 | 43.5 | > 50 | > 50 | 18.4 | 1.8 | 13.9 | 2.11 | – | 7.88 | 3.23 | 1.75 | 9.28 | 2.09 | 5.23
N#C/C(=C\c1cccc2cnccc12)N1N=NC2C=CC=CC21 (centres undefined) | – | > 100 | > 100 | > 100 | > 100 | > 100 | > 100 | > 100 | > 100 | – | – | 2.7 | 2.85 | 3.01 | 3.95 | 3.32 | 32.4 | 4.1 | 2.53 | –
COC(=O)/C(=C\c1c(-c2ccccc2)[nH]c2ccccc12)S(C)(=O)=O | 21.4 | 9.17 | – | 17.6 | 64.5 | > 100 | 19.9 | 21.9 | > 100 | 17 | 4.2 | 1.67 | – | 5.07 | 4.99 | 6.29 | 3.13 | 6.04 | 8.08 | 3.34
CSc1nc(N)c2c(n1)NC(c1ccccc1)C1CCc3ccccc3C1=N2 (centres undefined) | > 100 | 74 | > 100 | > 100 | > 100 | > 100 | > 100 | – | 5.54 | > 100 | 7.39 | 1.61 | 4.12 | 7.16 | 42.3 | 5.39 | 25.6 | – | 1.65 | 6.01
